Reference: paper PMC10246557, “Kinetic and inhibition studies on human Jumonji-C (JmjC) domain-containing protein 5” (RSC Chemical Biology, 2023)
Where “and” joins values, the source holds several entries; their conditions need not be identical. Equal values may be shown once. Read-outs that look alike come from different tables or passages of the source.

Experiments:
human JMJD5 [1] = biological target: T1, human JMJD5 (Homo sapiens, UniProt Q8N371); experiment: SPE-MS JMJD5 inhibition assay; type: biochemical; settings: JMJD5 0.15 μM, 2OG 2.0 μM, Fe(II) 2.0 μM, LAA 100 μM, RPS6_128–148 2.0 μM; read-out: IC50 JMJD5
T1 construct: made in house; host or cells: Escherichia coli BL21(DE3)
Procedure: Solutions of the small-molecules (100% DMSO) were dry dispensed across 384 well polypropylene V-bottom assay microplates (Greiner) in an approximately three-fold and 11-point dilution series (100 μM inhibitor top concentration; the final DMSO assay concentration was kept constant at 0.5%v/v) using an ECHO 550 acoustic dispenser (Labcyte). […] Each reaction was performed in technical duplicates in adjacent wells of the assay plates; additionally, assays were performed in two independent duplicates on different days using different inhibitor solutions.
The Enzyme Mixture (25 μL per well), containing 0.3 μM His6-thioredoxin-tagged JMJD5 in buffer (50 mM MOPS, pH 7.5), was dispensed across the inhibitor-containing 384-well plates with a multidrop dispenser (ThermoFischer Scientific) at 20 °C under an ambient atmosphere. The plates were subsequently centrifuged (1000 rpm, 5 s) and incubated for 15 min at 20 °C. […] The plates were centrifuged (1000 rpm, 5 s) and, after incubating for 30 min, the enzyme reaction was stopped by the addition of 10%v/v aqueous formic acid (5 μL per well). The plates were then centrifuged (1000 rpm, 30 s) and analyzed by MS.
Z′-Factors were calculated according to the cited literature using Microsoft Excel.[61]

human AspH [2] = settings: absence of 2OG, AspH 0.1 μM, 2OG derivative 330 μM, Fe(II) 50 μM, hFX-CP101–119 2.0 μM, cited from earlier work
human KDM4E [3] = biological target: T2, human KDM4E (Homo sapiens, UniProt B2RXH2); experiment: KDM4E SPE-MS inhibition assay; type: biochemical; settings: KDM4E 0.15 μM, peptide 10.0 μM, LAA 100 μM, FAS 10 μM, 2OG 10 μM
T2 sequence (B2RXH2 1-506): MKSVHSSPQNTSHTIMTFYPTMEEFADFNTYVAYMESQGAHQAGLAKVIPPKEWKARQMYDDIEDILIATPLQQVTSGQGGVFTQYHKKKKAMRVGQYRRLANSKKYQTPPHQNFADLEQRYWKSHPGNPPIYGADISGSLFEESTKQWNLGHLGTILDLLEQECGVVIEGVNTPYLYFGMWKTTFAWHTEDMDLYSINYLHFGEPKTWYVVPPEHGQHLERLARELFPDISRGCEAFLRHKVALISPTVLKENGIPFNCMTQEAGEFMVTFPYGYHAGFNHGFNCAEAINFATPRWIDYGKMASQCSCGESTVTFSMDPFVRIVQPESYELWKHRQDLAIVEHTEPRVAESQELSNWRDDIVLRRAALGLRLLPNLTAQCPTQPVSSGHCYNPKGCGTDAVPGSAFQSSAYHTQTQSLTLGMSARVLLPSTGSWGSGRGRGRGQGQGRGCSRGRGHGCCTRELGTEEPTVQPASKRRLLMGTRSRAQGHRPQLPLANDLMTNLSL
Procedure: KDM4E turnover and inhibition assays were performed as reported using recombinant human KDM4E and a histone 3 K9(me3) derivative (i.e. […](me3)STGGIA)[41] as substrate.[95] […]

human JMJD5 [4] = biological target: T1, human JMJD5; experiment: SPE-MS JMJD5 turnover and kinetic assay (RPS6_128–148 hydroxylation); type: biochemical; settings: absence of 2OG; JMJD5 0.15 μM, 2OG derivative 400 μM, Fe(II) 20 μM, RPS6_128–148 2.0 μM
Procedure: JMJD5 turnover assays for time course and kinetic experiments were performed in 96-well polypropylene assay plates (Greiner) with either […] total reaction volume using the concentrations given in the manuscript or ESI, ^† and JMJD5-catalysed substrate hydroxylation was directly monitored using SPE-MS. […] Assay samples were aspirated under vacuum for 0.6 s and loaded onto a C4 solid phase extraction (SPE) cartridge. After loading, the C4 SPE cartridge was washed with 0.1%v/v aqueous formic acid to remove non-volatile buffer salts (5.5 s, 1.5 mL min^−1). The peptide was eluted from the SPE cartridge with 0.1%v/v aqueous formic acid in 80/20v/v acetonitrile/water into the mass spectrometer (5.5 s, 1.5 mL min^−1) and the SPE cartridge re-equilibrated with 0.1%v/v aqueous formic acid (0.5 s, 1.5 mL min^−1). The mass spectrometer was operated using the MassHunter Workstation B.08.00 software (Agilent), the mass spectrometer parameters were: capillary voltage (4000 V), nozzle voltage (1000 V), fragmentor voltage (365 V), gas temperature (280 °C), gas flow (13 L min^−1), sheath gas temperature (350 °C), sheath gas flow (12 L min^−1). […] Data were exported into Microsoft Excel and used to calculate the % conversion of the hydroxylation reaction using the equation: % conversion = 100 × (integral product peptide)/(integral substrate peptide + integral product peptide).
parameters (continues on the following two pages). Maximum velocities (vapp ) and Michaelis constants (Kapp)
of JMJD5 were determined in independent triplicates, monitoring the JMJD5-catalyzed hydroxylation of the
SPE-MS, as described (Experimental Section).
20 °C). Measurement times were normalized to the first sample injection analyzed after the addition of JMJD5 to
shown as the mean of three independent runs (n = 3; mean ± standard deviation, SD).
hexahydrate (20 μM, (NH4)2Fe(SO4)2·6H2O); and (b) hydroxylation rates used to determine kinetic parameters of
(1 picture or pasted object on this page, not shown here)
Maximum velocities (vapp ) and
Michaelis constants (Kapp) of JMJD5 were determined in independent triplicates for (1R)-3-
(carboxycarbonyl)cyclopentane-1-carboxylic acid (14), monitoring the JMJD5-catalyzed hydroxylation of the
as described (Experimental Section).
pH 7.5, 20 °C). Measurement times were normalized to the first sample injection analyzed after the addition of
(§1) Data are shown as the mean of three independent runs (n = 3; mean ± SD).
to determine kinetic parameters of JMJD5 for 14.

human FIH [5] = settings: absence of 2OG, FIH 0.15 μM, 2OG derivative 330 μM, Fe(II) 50 μM, HIF-1α788–822 5.0 μM, cited from earlier work
human KDM4E [6] = biological target: T2, human KDM4E; experiment: KDM4E SPE-MS turnover and kinetic assay (H3 K9(me3) peptide demethylation); type: biochemical; settings: absence of 2OG, KDM4E 0.15 μM, 2OG derivative 330 μM, Fe(II) 50 μM, ARTAQTARK(me3)STGGIA 10.0 μM
Procedure: KDM4E turnover and inhibition assays were performed as reported using recombinant human KDM4E and a histone 3 K9(me3) derivative (i.e. […](me3)STGGIA)[41] as substrate.[95]
Supplementary Figure S3. Rates of KDM4E-catalyzed Nε-trimethyl lysine demethylations of a histone 3- […]
Maximum velocities (vapp ) and Michaelis […]
catalyzed Nε-trimethyl lysine demethylation of the histone 3 K9(me3)-derived peptide […]
(me3)STGGIA2 by SPE-MS as described;3 note that mono-, di-, and tri-demethylated product […]
buffer (50 mM MES, pH 7.0, 20 °C). Measurement times were normalized to the first sample injection analyzed […]
as §1
(a) Time course of the KDM4E-catalyzed Nε-trimethyl lysine demethylation reaction of the […]

human FIH [7] = tested on: human FIH; parameters: method as in ref 10 (ESI); settings: FIH 0.15 μM, HIF-1α788-822 5.0 μM, 2OG 10 μM; ref 10 (ESI); cited from earlier work
human AspH [8] = tested on: human AspH; parameters: method as in ref 9 (ESI); settings: AspH 0.05 μM, hFX-CP101-119 1.0 μM, 2OG 3.0 μM; ref 9 (ESI); cited from earlier work

T1 sequence (Q8N371 whole entry): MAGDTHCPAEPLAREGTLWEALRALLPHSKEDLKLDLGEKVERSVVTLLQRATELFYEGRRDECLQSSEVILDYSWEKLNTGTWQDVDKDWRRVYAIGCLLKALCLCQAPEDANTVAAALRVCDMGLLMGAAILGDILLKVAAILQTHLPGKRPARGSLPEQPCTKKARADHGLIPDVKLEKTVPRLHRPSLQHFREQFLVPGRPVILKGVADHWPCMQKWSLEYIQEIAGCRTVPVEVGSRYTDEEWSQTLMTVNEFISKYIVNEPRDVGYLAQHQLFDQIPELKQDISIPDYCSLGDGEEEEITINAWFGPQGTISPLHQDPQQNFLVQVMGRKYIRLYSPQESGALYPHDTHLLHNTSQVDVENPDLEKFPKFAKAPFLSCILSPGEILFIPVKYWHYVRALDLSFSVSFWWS

KDM4E (%): substrate demethylation with the compound as cosubstrate (human KDM4E [6]; listed as Entry 13) [%]	KDM4E (%): substrate demethylation with the compound as cosubstrate (human KDM4E [6]; listed as Entry 22) [%]	Compound	IC50 (human JMJD5 [1]) [µM]	AspH (%): substrate hydroxylation with the compound as cosubstrate (human AspH [2])	IC50 (human KDM4E [3])	JMJD5 (%): RPS6_128–148 hydroxylation with the compound as cosubstrate (human JMJD5 [4])	FIH (%): substrate hydroxylation with the compound as cosubstrate (human FIH [5])	KDM4E (%): substrate demethylation with the compound as cosubstrate (human KDM4E [6]) [%]	IC50 (human FIH [7]) [µM]	IC50 (human AspH [8]) [µM]	AspH (%): substrate hydroxylation with the compound as cosubstrate (human AspH [2]; listed as Entry 13) [%]	FIH (%): substrate hydroxylation with the compound as cosubstrate (human FIH [5]; listed as Entry 13) [%]	AspH (%): substrate hydroxylation with the compound as cosubstrate (human AspH [2]; listed as Entry 22)	FIH (%): substrate hydroxylation with the compound as cosubstrate (human FIH [5]; listed as Entry 22)
–	–	4-(2-naphthyl)methyl-2OG [2OG derivative 23]	> 50	< 1%	6 to 7 µM and ~6.9 µM	< 1%	< 1%	< 1	2.5 ± 0.1	–	–	–	–	–
–	–	O=C(O)C(=O)C1(C(=O)O)CC1 [2OG derivative 25]	> 50	< 1%	> 50 µM	< 1%	< 1%	< 1	> 50	3.3 ± 1	–	–	–	–
–	–	O=C(O)C(=O)c1ccc(C(=O)O)cc1Br [2OG derivative 30]	> 50	~ 20%	> 50 µM	< 1%	< 1%	< 1	> 50	> 50	–	–	–	–
–	–	4-methyl-2OG [2OG derivative 8]	> 50	~ 10%	–	~ 10%	~ 45%	< 1	> 50	> 50	–	–	–	–
–	–	O=C(O)C(=O)C1C2C=CC(C2)C1C(=O)O (racemic) [2OG derivative 26]	> 50	< 1%	> 50 µM	< 1%	< 1%	< 1	> 50	–	–	–	–	–
< 1	–	CC(C)(CC(=O)C(=O)O)C(=O)O [2OG derivative 9, 4,4-dimethyl-2OG]	–	–	> 30 µM	–	–	–	> 50	~0.3	< 1	< 5	–	–
–	–	Cc1cc(C(=O)O)ccc1C(=O)C(=O)O [2OG derivative 32]	> 50	~ 5%	> 50 µM	< 1%	< 1%	< 1	> 50	> 50	–	–	–	–
–	< 1	O=C(O)C(=O)C1CC[C@@H](C(=O)O)C1 (mixture of isomers) [2OG derivative 14, (1R)-3-(carboxycarbonyl)cyclopentane-1-carboxylic acid]	–	–	27.9 ± 3.5 µM	–	–	–	> 50	–	–	–	~ 15%	~ 2%
–	–	O=C(O)C(=O)c1ccc(C(=O)O)cc1F [2OG derivative 28]	> 50	~ 45%	> 50 µM	< 1%	< 1%	< 1	> 50	> 50	–	–	–	–
–	–	O=C(O)C(=O)c1ccc(C(=O)O)s1 [2OG derivative 34]	> 30	~ 15%	> 50 µM	< 1%	< 1%	< 1	> 50	–	–	–	–	–
